Results published in US9029391B2 (priority 2011, dated 2015).

system: HIV; test: MT4 Assay (anti-HIV activity); assay type: cell-based; settings: Human immunodeficiency virus 1, 96 h, read-out: HIV MT4 Assay IC50, HTLV-1 transformed cell line MT-4, cell titer glo, 10 point dose response curve
Procedure, shortened: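 IC50 values were fitted to 10-point dose-response series (3-4-fold dilutions, range >1000-fold), normalized to no-compound control. CellTiter-Glo read-out was taken after 96 hours in HTLV-1-transformed MT-4 cells. Cytotoxicity was measured in parallel under identical conditions.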

In order of rising IC50:
1. Cc1c(-c2c([C@H](OC(C)(C)C)C(=O)O)n(C)c(=O)c3cc(OCc4ccc(F)cc4)ccc23)ccc2c1CCCO2 [Example 147, (2S)-2-(tert-butoxy)-2-{7-[(4-fluorophenyl)methoxy]-2-methyl-4-(5-methyl-3,4-dihydro-2H-1-benzopyran-6-yl)-1-oxo-1,2-dihydroisoquinolin-3-yl}acetic acid]  20 nM
2. Cc1c(-c2c([C@H](OC(C)(C)C)C(=O)O)n(C)c(=O)c3cc(OCc4ccc(F)cc4F)ccc23)ccc2c1CCCO2 [Example 148, (2S)-2-(tert-butoxy)-2-{7-[(2,4-difluorophenyl)methoxy]-2-methyl-4-(5-methyl-3,4-dihydro-2H-1-benzopyran-6-yl)-1-oxo-1,2-dihydroisoquinolin-3-yl}acetic acid]  50 nM
3. Cc1c(-c2c(C(OC(C)(C)C)C(=O)O)n(C)c(=O)c3ccccc23)cc(F)c2c1CCCO2 (stereo not drawn) [Example 150, [(1,1-dimethylethyl)oxy][4-(8-fluoro-5-methyl-3,4-dihydro-2H-chromen-6-yl)-2-methyl-1-oxo-1,2-dihydro-3-isoquinolinyl]acetic acid]  160 nM
4. Cn1c(C(OC(C)(C)C)C(=O)O)c(-c2ccc3c(c2)CCC3)c2ccccc2c1=O (stereo not drawn) [Example 152, 2-(tert-butoxy)-2-(4-(2,3-dihydro-1H-inden-5-yl)-2-methyl-1-oxo-1,2-dihydroisoquinolin-3-yl)acetic acid]  430 nM
5. Cn1c(C(OC(C)(C)C)C(=O)O)c(-c2ccccc2)c2ccccc2c1=O (stereo not drawn) [Example 156, [(1,1-dimethylethyl)oxy](2-methyl-1-oxo-4-phenyl-1,2-dihydro-3-isoquinolinyl)acetic acid]  800 nM
6. CC1CCOc2ccc(-c3c(C(OC(C)(C)C)C(=O)O)n(C)c(=O)c4ccccc34)cc21 (stereo not drawn) [Example 149, [(1,1-dimethylethyl)oxy][2-methyl-4-(4-methyl-3,4-dihydro-2H-chromen-6-yl)-1-oxo-1,2-dihydro-3-isoquinolinyl]acetic acid]  1170 nM
7. Cn1c(C(OC(C)(C)C)C(=O)O)c(-c2ccc(Cl)cc2)c2ccccc2c1=O (stereo not drawn) [Example 154, [4-(4-chlorophenyl)-2-methyl-1-oxo-1,2-dihydro-3-isoquinolinyl][(1,1-dimethylethyl)oxy]acetic acid]  2090 nM
8. Cn1c(C(OC(C)(C)C)C(=O)O)c(-c2ccc3ncsc3c2)c2ccccc2c1=O (stereo not drawn) [Example 153, 2-(4-(benzo[d]thiazol-6-yl)-2-methyl-1-oxo-1,2-dihydroisoquinolin-3-yl)-2-(tert-butoxy)acetic acid]  3880 nM
9. Cc1occc1-c1c(C(OC(C)(C)C)C(=O)O)n(C)c(=O)c2ccccc12 (stereo not drawn) [Example 155, [(1,1-dimethylethyl)oxy][2-methyl-4-(2-methyl-3-furanyl)-1-oxo-1,2-dihydro-3-isoquinolinyl]acetic]  13300 nM
10. Cn1cc(-c2c(C(OC(C)(C)C)C(=O)O)n(C)c(=O)c3ccccc23)cn1 (stereo not drawn) [Example 157, [(1,1-dimethylethyl)oxy][2-methyl-4-(1-methyl-1H-pyrazol-4-yl)-1-oxo-1,2-dihydro-3-isoquinolinyl]acetic acid]  41600 nM
11. Cn1c(C(OC(C)(C)C)C(=O)O)c(-c2cc3c4c(c2)CCCN4CCC3)c2ccccc2c1=O (stereo not drawn) [Example 158, [(1,1-dimethylethyl)oxy][2-methyl-1-oxo-4-(2,3,6,7-tetrahydro-1H,5H-pyrido[3,2,1-ij]quinolin-9-yl)-1,2-dihydro-3-isoquinolinyl]acetic acid]  50000 nM

same assay, conditions: read-out: HIV MT4 Assay IC50; HTLV-1 transformed cell line MT-4; 96 hours; cell titer glo; 10 point dose response curve

Molecule `Cc1c(-c2c([C@@H](OC(C)(C)C)C(=O)O)n(C)c(=O)c3ccccc23)cc(F)c2c1CCCO2` [Example 160, (2R)-2-(tert-butoxy)-2-[4-(8-fluoro-5-methyl-3,4-dihydro-2H-1-benzopyran-6-yl)-2-methyl-1-oxo-1,2-dihydroisoquinolin-3-yl]acetic acid] has an IC50 of 41600 nM.
